In patent publication US20260151518A1, “LEUKOCYTE-SPECIFIC CELL PENETRATING MOLECULES” (Amytrx Therapeutics, Inc., priority 2021, published 2026):
Marks after values point to notes of the source that are not given here.

Test: Tissue distribution of radioactivity by quantitative whole body autoradiography (QWBA) after single intravenous [3H]-AMTX-100
Type: in vivo, rat
Settings: single intravenous, 5 mg/kg, rat
Method: The formulation was administered directly into a tail vein. The dose volume (2.5 mL/kg) was used to achieve a dose level of 5 mg/kg and radioactive dose levels of 100 μCi/kg (Phase 1) and 500 μCi/kg (Phase 2). The dose formulation was stirred continuously throughout the dosing procedure.
Quantitative Whole Body Autoradiography (QWBA). The frozen carcasses were subjected to QWBA. Sections were presented at up to five different levels of the rat body to include between 30 and 40 tissues (subject to presence of sufficient radioactivity).
The freeze-dried whole body autoradiography sections were exposed to phosphor-storage imaging plates and incubated at ambient temperature in the dark for seven days. Calibrated autoradiographic blood standards containing known amounts of radioactivity (nCi/g) were included in each exposure.
Distribution of radioactivity in tissues and [^3H]-blood standards (prepared and validated at Pharmaron UK Ltd.) was determined and quantified using a Fuji FLA-5100 fluorescent image analyzing system and associated Tina (version 2.09) and SeeScan (version 2.0) software. For each exposure, a standard curve was produced in SeeScan using the data from the autoradiographic blood standards from which tissue concentrations of radioactivity (μg equivalents/g) were determined.
A representative background radioactivity measurement for each exposure plate used was also taken. The number of measurements for each particular tissue was determined by the number of levels it appeared in. Multiple measurements were therefore performed for larger tissues that appeared in more than one level (e.g. liver), with only one measurement obtained for small tissues (e.g. thyroid gland). The limit of accurate quantification was considered to be the lowest [^3H]-blood standard visible.
Three of the carcasses obtained from the eight male Sprague Dawley rats subjected to whole blood collection and analysis after each receiving a single intravenous administration of [^3H]-AMTX-100, were selected for QWBA analysis at each of the following time points: 10 minutes and 2 and 12 hours post-dose.
Each carcass was snap frozen by immersion in a hexane/dry ice mixture immediately after collection and was then stored at approximately −20° C., pending analysis by QWBA.

CSCC[C@@H]1NC(=O)[C@H](CC(C)C)NC(=O)[C@H](CCCCN)NC(=O)[C@H](CCC(N)=O)CC(=O)[C@H](CCCNC(=N)N)NC(=O)[C@H](CCCCN)NC(=O)[C@H](CCCNC(=N)N)NC(=O)[C@H](CCC(N)=O)NC(=O)[C@H](C(C)C)NC(=O)[C@@H](NC(=O)[C@@H]2CCCN2C(=O)[C@H](C)NC(=O)[C@H](CC(C)C)NC(=O)[C@H](CC(C)C)NC(=O)[C@H](C)NC(=O)[C@H](CC(C)C)NC(=O)[C@H](CC(C)C)NC(=O)[C@@H](NC(=O)[C@H](C)NC(=O)[C@@H]2CCCN2C(=O)[C@H](CC(C)C)NC(=O)[C@H](CC(C)C)NC(=O)[C@H](C)NC(=O)[C@@H](NC(=O)[C@H](C)NC(=O)[C@H](C)N)C(C)C)C(C)C)CSSC[C@@H](C(=O)O)NC(=O)[C@@H]2CCCN2C1=O [[^3H]-AMTX-100]
Concentration of radioactivity in Caecum mucosa (2 hr): 0.76 μg equivalents/g | Concentration of radioactivity in Epididymis (2 hr): 0.67 μg equivalents/g | Concentration of radioactivity in Ex-orbital lachrymal gland (2 hr): 0.46 μg equivalents/g | Concentration of radioactivity in Eye: lens (2 hr): BLQ (Below lower limit of accurate quantification (<0.36 μg equivalents/g)) | Concentration of radioactivity in Eye: whole (2 hr): BLQ (Below lower limit of accurate quantification (<0.36 μg equivalents/g)) | Concentration of radioactivity in Fat: brown (2 hr): BLQ (Below lower limit of accurate quantification (<0.36 μg equivalents/g)) | Concentration of radioactivity in Fat: white (2 hr): BLQ (Below lower limit of accurate quantification (<0.36 μg equivalents/g)) | Concentration of radioactivity in Forestomach mucosa (2 hr): 0.57 μg equivalents/g | Concentration of radioactivity in Glandular stomach mucosa (2 hr): 0.81 μg equivalents/g | Concentration of radioactivity in Harderian gland (2 hr): 0.37 μg equivalents/g | Concentration of radioactivity in Kidney: cortex (2 hr): 9.59 μg equivalents/g | Concentration of radioactivity in Kidney: medulla (2 hr): 4.47 μg equivalents/g | Concentration of radioactivity in Kidney: whole (2 hr): 7.35 μg equivalents/g | Concentration of radioactivity in Large intestine contents (2 hr): BLQ (Below lower limit of accurate quantification (<0.36 μg equivalents/g)) | Concentration of radioactivity in Large intestine mucosa (2 hr): 0.63 μg equivalents/g | Concentration of radioactivity in Liver (2 hr): 31.60 μg equivalents/g | Concentration of radioactivity in Lung (2 hr): 31.90 μg equivalents/g | Concentration of radioactivity in Lymph node (2 hr): 0.83 μg equivalents/g | Concentration of radioactivity in Muscle (2 hr): BLQ (Below lower limit of accurate quantification (<0.36 μg equivalents/g)) | Concentration of radioactivity in Myocardium (2 hr): 0.53 μg equivalents/g | Concentration of radioactivity in Pancreas (2 hr): 1.69 μg equivalents/g | Concentration of radioactivity in Pituitary gland (2 hr): 1.58 μg equivalents/g | Concentration of radioactivity in Prostate gland (2 hr): 0.83 μg equivalents/g | Concentration of radioactivity in Salivary gland (2 hr): 0.80 μg equivalents/g | Concentration of radioactivity in Skin (2 hr): 0.39 μg equivalents/g | Concentration of radioactivity in Small intestine contents (2 hr): 1.23 μg equivalents/g | Concentration of radioactivity in Small intestine mucosa (2 hr): 0.89 μg equivalents/g | Concentration of radioactivity in Spinal cord (2 hr): BLQ (Below lower limit of accurate quantification (<0.36 μg equivalents/g)) | Concentration of radioactivity in Spleen: red pulp (2 hr): 11.90 μg equivalents/g | Concentration of radioactivity in Spleen: white pulp (2 hr): 2.92 μg equivalents/g | Concentration of radioactivity in Spleen: whole (2 hr): 41.80 μg equivalents/g | Concentration of radioactivity in Stomach contents (2 hr): BLQ (Below lower limit of accurate quantification (<0.36 μg equivalents/g)) | Concentration of radioactivity in Testis (2 hr): 0.37 μg equivalents/g | Concentration of radioactivity in Thymus (2 hr): 0.68 μg equivalents/g | Concentration of radioactivity in Thyroid gland (2 hr): 1.29 μg equivalents/g | Concentration of radioactivity in Urinary bladder wall (2 hr): 1.22 μg equivalents/g | Concentration of radioactivity in Urinary bladder contents (2 hr, above upper limit of accurate quantification (>153 μg equivalents/g)): 219.00* μg equivalents/g | Concentration of radioactivity in Adrenal gland (12 hr): 0.44 μg equivalents/g | Concentration of radioactivity in Blood: residual cardiac (12 hr): BLQ (Below lower limit of accurate quantification (<0.36 μg equivalents/g)) | Concentration of radioactivity in Bone marror (12 hr): 2.18 μg equivalents/g | Concentration of radioactivity in Caecum contents (12 hr): BLQ (Below lower limit of accurate quantification (<0.36 μg equivalents/g)) | Concentration of radioactivity in Kidney: cortex (12 hr): 0.61 μg equivalents/g | Concentration of radioactivity in Kidney: medulla (12 hr): 0.45 μg equivalents/g | Concentration of radioactivity in Kidney: whole (12 hr): 0.54 μg equivalents/g | Concentration of radioactivity in Large intestine contents (12 hr): 0.36 μg equivalents/g | Concentration of radioactivity in Large intestine mucosa (12 hr): BLQ (Below lower limit of accurate quantification (<0.36 μg equivalents/g)) | Concentration of radioactivity in Liver (12 hr): 8.77 μg equivalents/g | Concentration of radioactivity in Lung (12 hr): 30.10 μg equivalents/g | Concentration of radioactivity in Muscle (12 hr): BLQ (Below lower limit of accurate quantification (<0.36 μg equivalents/g)) | Concentration of radioactivity in Pancreas (12 hr): BLQ (Below lower limit of accurate quantification (<0.36 μg equivalents/g)) | Concentration of radioactivity in Small intestine contents (12 hr): 0.47 μg equivalents/g | Concentration of radioactivity in Small intestine mucosa (12 hr): BLQ (Below lower limit of accurate quantification (<0.36 μg equivalents/g)) | Concentration of radioactivity in Spleen: red pulp (12 hr): 6.89 μg equivalents/g | Concentration of radioactivity in Spleen: white pulp (12 hr): 0.89 μg equivalents/g | Concentration of radioactivity in Spleen: whole (12 hr): 11.90 μg equivalents/g | Concentration of radioactivity in Testis (12 hr): BLQ (Below lower limit of accurate quantification (<0.36 μg equivalents/g)) | Concentration of radioactivity in Urinary bladder contents (12 hr): 11.90 μg equivalents/g | Concentration of radioactivity in Urinary bladder wall (12 hr): BLQ (Below lower limit of accurate quantification (<0.36 μg equivalents/g))
